Experimental data published in patent US20080057136A1, “Disinfecting Composition and Methods of Making and Using Same” (priority 2003, published 2008).
In brackets after ≈: the same amount, converted by molar mass.

What was measured:
[1] = system: E. coli (strain 1257); test: Time-kill test, initial studies (death time); assay type: cell-based, Escherichia coli
From the text: (§1) Time-kill tests were used to measure the disinfecting property of test compounds, e.g., microbiocidal or sporicidal compositions, using select bacterial challenge microorganisms such as the vegetative forms of, e.g., E. coli (strain 1257) S. aureus (strain 906), and Bacillus cereus (strain 96).

[2] = system: S. aureus (strain 906); test: Time-kill test, initial studies (death time); assay type: cell-based, Staphylococcus aureus
From the text: as §1

[3] = system: Staphylococcus aureus (ATCC 25923); test: Time-Kill test (Example 9); assay type: cell-based; details: Study 509-101; at 30 seconds
Experimental: A panel of “challenge microorganisms,” including select bacteria, yeast, and fungi was used to assess the disinfecting properties of test compounds, e.g., AMC (DPT Laboratories). Specifically, the disinfectant property of test compounds were tested against Staphylococcus aureus (ATCC 25923); Staphylococcus epidermidis (ATCC 12228); Bacillus subtilis (ATCC 19659); Escherichia coli (ATCC 11229); and Pseudomonas aeruginosa (ATCC 15442) bacteria, as well as the yeast Candida albicans (ATCC 10231), and the fungus Trichophyton rubrum (ATCC 28188). The test procedure incorporated the recommendations described in the “Manual of Clinical Microbiology,” 5th ed., edited by A. B. Balows et al., ASM, Washington, as directed by the Federal Register, June 1994. […]
A single lot of test material was prepared at various concentrations, along with multiple compounds prepared in various concentrations and combinations. […] The plates were then incubated, and the average colony forming units (CFU) recovered per milliliter were determined for each contact time. […]
Bacteria and C. albicans from stock cultures were transferred into trypticase soya broth (TSB) and incubated for 18-24 hours at 37° C.±2° C. […] The microbe concentration was measured using a spectrophotometric technique well-known in the art. […]

[4] = system: S. epidermidis ATCC 12228; test: NCCLS broth microdilution MIC and MBC (Example 10); assay type: cell-based, Staphylococcus epidermidis
Experimental: (§4) Strains of E. coli (ATCC 11229), D. aeruginosa (ATCC 15442), S. aureus (ATCC 25923), S. epidermidis (ATCC 12228), S. pyogenes (ATCC 19615), C. albicans (ATCC 10231), and T. rubrum (ATCC 28188) were used as “challenge microorganisms” in this study. Strains were removed from frozen stock and subcultured twice on blood agar to ensure that the strains had optimal growth and metabolic status before testing.
(§5) Hibiclens (industry comparator) and ciprofloxacin were added to the bacterial panel. Amphotericin B, fluconazole, and Hibiclens were added as comparative agents in the fungal panels.
(§6) For testing purposes, AMC, AMC components, and Hibiclens were diluted to 50% of the working solution to cover the proposed AMC use dilution of 20%.
(§7) Microtiter panels were created on the day of MIC testing. A 50 μl aliquot of Mueller-Hinton broth (for bacterial strains) or RPMI 1640 (for fungal strains) was delivered to each well, except those in column one of the microtiter panel. The working solution of AMC and each of its components, and comparative agents were delivered to the designated wells in column one. AMC, components, and comparators were serially diluted across the panel. A 50 μl aliquot of bacterial or fungal suspension was then added to each well on the microtiter panel, using a new pipette tip for each aliquot. Panels were incubated at 35° C. for 16-20 h for the E. coli, P. aeruginosa, and S. aureus strains, 20-24 h for the S. pyogenes strain, and 48 h for the C. albicans strain.
(§8) The 10 μl samples were plated on to blood agar and incubated at 35° C. for 24 h (E. coli and P. aeruginosa) or 48 h (S. aureus, S. epidermidis, and S. pyogenes). After incubation, colony counts for each panel well plated were recorded.
(§9) The MIC % is expressed as g/100 ml or ml/100 ml. […] The MBC % is expressed as g/100 ml or ml/100 ml.

[5] = system: S. aureus ATCC 25923; test: NCCLS broth microdilution MIC and MBC (Example 10); assay type: cell-based, Staphylococcus aureus; details: Example 10
Experimental: as §4, §5, §6, §7, §8, §9

[6] = system: S. pyogenes ATCC 19615; test: NCCLS broth microdilution MIC and MBC (Example 10); assay type: cell-based, Streptococcus pyogenes; details: Example 10
Experimental: as §4, §5, §6, §7, §8, §9

[7] = system: E. coli ATCC 11229; test: NCCLS broth microdilution MIC and MBC (Example 10); assay type: cell-based, Escherichia coli; details: % as g/100 ml or ml/100 ml
Experimental: as §4, §5, §6, §7, §8, §9

[8] = system: P. aeruginosa ATCC 15442; test: NCCLS broth microdilution MIC and MBC (Example 10); assay type: cell-based, Pseudomonas aeruginosa; details: Example 10
Experimental: as §4, §5, §6, §7, §8, §9

[9] = system: C. albicans ATCC 10231; test: NCCLS broth microdilution MIC and MFC (Example 10); assay type: cell-based, Candida albicans; details: for MIC: amphotericin B complete inhibition; for fungicidal activity: MFC within 1 doubling dilution of the MIC
Experimental: as §4
(§10) Amphotericin B, fluconazole, and Hibiclens were added as comparative agents in the fungal panels.
as §6
(§11) Microtiter panels were created on the day of MIC testing. A 50 μl aliquot of Mueller-Hinton broth (for bacterial strains) or RPMI 1640 (for fungal strains) was delivered to each well, except those in column one of the microtiter panel. The working solution of AMC and each of its components, and comparative agents were delivered to the designated wells in column one. AMC, components, and comparators were serially diluted across the panel. A 50 μl aliquot of bacterial or fungal suspension was then added to each well on the microtiter panel, using a new pipette tip for each aliquot. Panels were incubated at 35° C. for 16-20 h for the E. coli, P. aeruginosa, and S. aureus strains, 20-24 h for the S. pyogenes strain, and 48 h for the C. albicans strain. T. rubrum panels were incubated for 3 to 4 days before MICs were read. […] Fungal MICs (%) were read using an 80% reduction in the growth endpoint relative to the turbidity of the growth control for AMC, its components, and fluconazole. For amphotericin B, the endpoint was read as the complete inhibition of growth.
(§12) MFCs were determined in a similar manner.
(§13) The endpoint for amphotericin B was read as complete inhibition of growth. The MIC % is expressed as g/100 ml or ml/100 ml. […] The MFC % is expressed as g/100 ml or ml/100 ml.

[10] = system: T. rubrum ATCC 28188; test: NCCLS broth microdilution MIC and MFC (Example 10); assay type: cell-based, Trichophyton rubrum; details: Example 10; for MIC: 80% reduction in growth, amphotericin B complete inhibition; for fungicidal activity: MFC within 1 doubling dilution of the MIC
Experimental: as §4, §10, §6, §11, §12, §13

[11] = system: C. albicans ATCC 10231; test: NCCLS broth microdilution MIC and MFC (Example 11); assay type: cell-based, Candida albicans; details: for MIC: amphotericin B complete inhibition, terbinafine 50%/90%
Experimental: (§14) Strains of C. albicans (ATCC 10231) and T. rubrum (ATCC 28188) were tested in this study. Strains were removed from frozen stock and subcultured twice on blood agar to ensure that the strains had optimal growth and metabolic status before testing. Strains were tested by NCCLS broth microdilution (M27-A2, 2002) and challenged with AMC solution and its individual components […] ), and isopropanol. Amphotericin B, fluconazole, terbinafine, and Hibiclens were added as comparator compounds. […] Microtiter panels were created on the day of MIC testing. A 50 μl aliquot of RPMI 1640 was delivered to each well except those in column one of the microtiter panel. The working solution of AMC and each of its components, and comparative agents were delivered to the designated wells in column one; AMC, components, and comparators were serially diluted across the panel. A 50 μl aliquot of fungal suspension was then added to each well on the microtiter panel, using a new pipette tip for each aliquot. […] For amphotericin B, the endpoint was read as the complete inhibition of growth. […] MFCs were performed to determine the concentration at which ≧99% of the starting fungal inoculum was killed. […] After incubation, colony counts for each panel well plated were recorded. […] The endpoint for amphotericin B was read as complete inhibition of growth.

[12] = system: T. rubrum ATCC 28188; test: NCCLS broth microdilution MIC and MFC (Example 11); assay type: cell-based, Trichophyton rubrum; details: Example 11; for MIC: 80% reduction in growth, amphotericin B complete inhibition; for fungicidal activity: MFC within 1 doubling dilution of the MIC
Experimental: as §14

[13] = system: C. albicans; test: MIC and MBC determination by doubling dilutions (Study 509-102); assay type: cell-based; details: Candida albicans, Inoculum Counts: 6.6 × 10^5
From the text: (§2) Table 2 below indicates the stock dilutions for each test agent, and a breakdown of the resulting concentrations for each of the doubling dilutions performed is summarized in Table 3.
(§3) From the stock dilutions, an initial 1:10 dilution was made (representing tube 1), followed by doubling dilutions (tubes 2-12), as detailed in Table 3.

[14] = system: T. rubrum; test: as above; assay type: cell-based, Trichophyton rubrum; details: Trichophyton rubrum; Study 509-102; Inoculum Counts: 3.6 × 10^8
From the text: as §2, §3

[15] = system: Candida albicans (ATCC 10231); test: Time-Kill test (Example 9); assay type: cell-based; details: Study 506-103
Experimental: A panel of “challenge microorganisms,” including select bacteria, yeast, and fungi was used to assess the disinfecting properties of test compounds, e.g., AMC (DPT Laboratories). […] The procedure was based on the ASTM procedure entitled, “Standard Test Method for the Assessment of Microbial Activity of Test Materials Using Time-Kill Procedure.”
A single lot of test material was prepared at various concentrations, along with multiple compounds prepared in various concentrations and combinations. These test materials were tested in duplicate against various bacteria, yeast and fungi. To minimize potential buffer interference and to minimize reduction of antimicrobial activity, the volume of the inoculum added to the test material was maintained at, or below, 1% of the total volume of the test. Samples were removed at various contact times. Serial dilutions were performed, and duplicate aliquots were plated. The plates were then incubated, and the average colony forming units (CFU) recovered per milliliter were determined for each contact time. The contact times for the test compounds with S. aureus, E. coli, P. aeruginosa, and C. albicans were 30 sec, 1 min, and 5 min. The contact times for the test compounds with B. subtilis were 1 and 10 min, 1 h, 2 h, 3 h, and 24 h. The contact times for the test compounds with T. rubrum were 30 sec, 1 min and 10 min. The contact temperature was ambient room temperature (20-21° C.).
Bacteria and C. albicans from stock cultures were transferred into trypticase soya broth (TSB) and incubated for 18-24 hours at 37° C.±2° C. A second transfer was made onto Trypticase Soya Agar (TSA). The plate was removed from incubation and the growth was washed from the agar surface with Butterfield's Phosphate Buffered Dilution Water (PBDW). The microbe concentration was measured using a spectrophotometric technique well-known in the art. The suspension was subsequently adjusted to contain approximately 10^8 colony forming units (CFU) per ml. • 2.
Compliant with the ASTM procedure cited above, the challenge microorganism was added to the test material by dispensing 99 ml of the test material into two sterile flasks, each containing a stir bar. The reaction flasks were allowed to equilibrate to the test temperature for at least 10 minutes. The flasks were placed in water baths on stir plates and maintained at the test temperature with stirring. A 1 ml aliquot of the prepared inoculum of the challenge microorganism was added to each flask to begin the contact period. At each contact time, 1 ml aliquot samples were removed and added to tubes containing 9 ml PBDW+. Serial 10-fold dilutions of each sample were then prepared in PBDW dilution blanks. Duplicate aliquots from selected dilutions were plated using the appropriate agar.
Upon completion of all contact periods, all plates were inverted and incubated for the appropriate time and temperature as follows: bacteria and yeast were incubated over 2 nights at 37° C.±2° C., and the fungus was incubated for at least 5 nights at 25-30° C. Following incubation, all plates were removed, the colonies were counted and the CFU recovered per ml at each contact time were calculated.
For each challenge microorganism, 99 ml of PBDW was dispensed into a sterile flask, and a 1 ml aliquot of prepared inoculum was added to the flask with stirring.

[16] = 80% reduction in growth endpoint
[17] = Candida albicans, ATCC10231, 80% reduction in growth, read-out: MIC
[18] = Trichophyton rubrum, ATCC28188, read-out: MIC

## O=C(O)CN(CCN(CC(=O)O)CC(=O)O)CC(=O)O.[Zn] [ZnEDTA, ethylenediaminotetraacetate zinc complex]
[1]; Conc. 0.1 %
  Death time of test-microorganisms (min) E. coli: >30 min
[1]; Conc. 5.0 %
  Death time of test-microorganisms (min) E. coli: >30 min
[2]; Conc. 0.1 %
  Death time of test-microorganisms (min) S. aureus: >30 min
[2]; Conc. 5.0 %
  Death time of test-microorganisms (min) S. aureus: >30 min
[3]
  reduction of S. aureus count: ineffective
[4]
  MCB (μg/ml): (>25000) μg/ml
[4]; % as g/100 ml or ml/100 ml
  MCB, %: >2.5%
  MIC, %: 1.3%
[5]
  MBC (μg/ml): (>25000) μg/ml
[5]; % as g/100 ml or ml/100 ml
  MBC, %: >2.5%
  MIC, %: 1.3%
[6]
  MBC (μg/ml): (13000) μg/ml
[6]; % as g/100 ml or ml/100 ml
  MBC, %: 1.3%
  MIC, %: 1.3%
[7]
  MIC, %: 2%
[8]
  MBC: 80000 µg/mL
[8]; % as g/100 ml or ml/100 ml
  MBC, %: 8%
  MIC, %: 2%
[8]; MBC within one doubling dilution of the MIC
  bactericidal activity: did not meet the definition of bactericidal
[9]; [16]
  MIC, %: 0.15%
[9]; 80% reduction in growth
  MIC: 1500 µg/mL
[9]; 99.9% inhibition of growth
  MFC: 1500 µg/mL
  MFC, %: 0.15%
[9]
  fungicidal activity: Fungal activity
[10]; [16]
  MIC, %: 0.08%
[10]
  MIC: 800 µg/mL
  fungicidal activity: did not demonstrate fungicidal activity
[10]; 99.9% inhibition of growth
  MFC: 3000 µg/mL
  MFC, %: 0.3%
[11]
  MFC: 13000 µg/mL
  MFC, %: 1.3%
[11]; [16]
  MIC, %: 0.08%
[11]; 80% reduction in growth
  MIC: 800 µg/mL
[12]
  MFC: 6000 µg/mL
  MFC, %: 0.6%
  MIC: 400 µg/mL
  fungicidal activity: did not demonstrate fungicidal activity
[12]; [16]
  MIC, %: 0.04%

## Clc1ccc(COC(Cn2ccnc2)c2ccc(Cl)cc2Cl)c(Cl)c1 (stereo not drawn) [Miconazole]
[13]
  MBC: 2 µg/mL (≈ 4.81 µM)
  MIC: 2 µg/mL (≈ 4.81 µM)
[14]
  MBC: 0.25 µg/mL (≈ 0.601 µM)
  MIC: 0.25 µg/mL (≈ 0.601 µM)

## OC(Cn1cncn1)(Cn1cncn1)c1ccc(F)cc1F [Fluconazole]
[15]; 30 sec. contact
  Log10 Reduction: <1.0 Log10
[15]; 30 sec. contact, initial 3.0 × 10^7 CFU/ml, Fluconazole 2 mg/ml
  CFUs recovered per milliliter of C. albicans culture: 3.0 × 10^6 CFU/ml
[15]; 60 sec. contact
  CFUs recovered per milliliter of C. albicans culture: 3.0 × 10^6 CFU/ml
  Log10 Reduction: <1.0 Log10
[15]; 5 min. contact
  CFUs recovered per milliliter of C. albicans culture: 3.0 × 10^6 CFU/ml
  Log10 Reduction: <1.0 Log10
[9]; [17]
  MIC: 0.5 µg/mL (≈ 1.63 µM)
[9]; Candida albicans, ATCC10231, 99.9% inhibition of growth, read-out: MFC
  MFC: 2 µg/mL (≈ 6.53 µM)
[9]
  fungicidal activity: not considered fungicidal
[10]
  fungicidal activity: did not demonstrate fungicidal activity
[10]; [18]
  MIC: 2 µg/mL (≈ 6.53 µM)
[10]; Trichophyton rubrum, ATCC28188, 99.9% inhibition of growth, read-out: MFC
  MFC: 8 µg/mL (≈ 26.1 µM)
[11]; [17]
  MIC: 0.5 µg/mL (≈ 1.63 µM)
[11]; Candida albicans, ATCC10231, read-out: MFC
  MFC: 1 µg/mL (≈ 3.27 µM)
[11]; MFC within 1 doubling dilution of the MIC
  fungicidal activity: Fungicidal activity
[12]
  fungicidal activity: did not demonstrate fungicidal activity
[12]; [18]
  MIC: 2 µg/mL (≈ 6.53 µM)
[12]; Trichophyton rubrum, ATCC28188, read-out: MFC
  MFC: 64 µg/mL (≈ 209 µM)
